Values quoted from earlier work in EP1911850A1, “Method of producing 6-thio-sialylated glycoproteins and glycoconjugates” (CENTRE NATIONAL DE LA RECHERCHE SCIENTIFIQUE (CNRS), priority 2006, dated 2008).

Tested on: a galactosidase
Settings: background statement; comparator not stated

In the case of `CC(=O)N[C@H]1C(O)O[C@H](CO)[C@@H](O[C@@H]2S[C@H](CO)[C@H](O)[C@H](O)[C@H]2O)[C@@H]1O` (stereo partly shown) [5'-Thio-N-acetyllactosamine], the “increased stability to digestion by a galactosidase” value is listed as 200 fold.
